Data published in ChEMBL document CHEMBL4011612, “4-Anilino-pyrimidine, novel aldosterone synthase (CYP11B2) inhibitors bearing pyrimidine structures” (Bioorg Med Chem Lett, 2017).
Calls of active or inactive are those of the source. No cut-off for these calls is given here.

The compounds below were run against T1, Cytochrome P450 11B2, mitochondrial (Mus musculus, UniProt P15539). Details: not given.
T1 sequence (P15539 whole entry): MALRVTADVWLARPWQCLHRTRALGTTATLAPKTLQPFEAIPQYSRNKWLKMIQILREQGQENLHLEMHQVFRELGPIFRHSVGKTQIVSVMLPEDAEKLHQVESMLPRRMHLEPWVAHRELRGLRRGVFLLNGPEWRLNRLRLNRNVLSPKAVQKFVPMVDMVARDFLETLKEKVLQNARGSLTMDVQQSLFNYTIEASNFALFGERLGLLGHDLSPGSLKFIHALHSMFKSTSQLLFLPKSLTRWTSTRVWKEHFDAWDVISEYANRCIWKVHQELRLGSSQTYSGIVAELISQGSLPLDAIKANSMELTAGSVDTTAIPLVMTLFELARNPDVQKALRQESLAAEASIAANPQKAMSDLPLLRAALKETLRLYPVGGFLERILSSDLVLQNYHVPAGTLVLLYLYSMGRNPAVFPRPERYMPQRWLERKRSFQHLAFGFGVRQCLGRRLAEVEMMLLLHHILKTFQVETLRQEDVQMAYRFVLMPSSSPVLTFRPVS
`CCCCC(O)(c1cncnc1Nc1ccc(F)cc1)C1CCN(S(C)(=O)=O)CC1` (racemic) was tested, and the IC50 was 170 nM. In the case of `CS(=O)(=O)N1CCC(C(O)c2cncnc2Nc2ccc(C(F)(F)F)cc2)CC1` (racemic), the IC50 is reported as 798 nM. In the case of `CS(=O)(=O)N1CCC(CC(O)c2cncnc2Nc2ccc(F)cc2)CC1` (racemic), the IC50 is reported as 3130 nM. In the case of `CS(=O)(=O)N1CCC(C(O)c2cncnc2Nc2ccc(F)cc2)C1` (mixture of isomers), the IC50 is reported as 1470 nM. `CS(=O)(=O)N1CCC(C(O)c2cncnc2Nc2ccc(C#N)cc2)CC1` (racemic) gave an IC50 of 1340 nM. `CS(=O)(=O)N1CCC(C(O)(c2cncnc2Nc2ccc(F)cc2)C(F)(F)F)CC1` (single isomer, unassigned; isomer 2) showed an IC50 greater than 100 nM. Work on `CS(=O)(=O)N1CCC(C(O)c2cncnc2Nc2ccccc2)CC1` (racemic) yielded an IC50 of 1760 nM. `OC(c1ccccc1)c1cncnc1Nc1ccc(F)cc1` (racemic) gave an IC50 of 440 nM. Compound `CCCC(O)c1cncnc1Nc1ccc(F)cc1` (racemic) has an IC50 of 911 nM. `CS(=O)(=O)N1CCC(O)(c2cncnc2Nc2ccc(F)cc2)CC1` was tested, and the IC50 was 1380 nM.

These compounds were tested on Cynomolgus monkey (assay: Decrease in plasma aldosterone level in furosemide-induced cynomolgus monkey at 3 mg/kg, po administered as single dose by radioimmunoassay). Details: Macaca fascicularis.
Type: functional, organism-based
For `CS(=O)(=O)N1CCC(C(O)(c2cncnc2Nc2ccc(F)cc2)C(F)(F)F)CC1` (racemic), the Activity was “Active”.

Each compound was assayed against T2, Cytochrome P450 11B2, mitochondrial (Homo sapiens, UniProt P19099). Details: not given.
T2 sequence (P19099 whole entry): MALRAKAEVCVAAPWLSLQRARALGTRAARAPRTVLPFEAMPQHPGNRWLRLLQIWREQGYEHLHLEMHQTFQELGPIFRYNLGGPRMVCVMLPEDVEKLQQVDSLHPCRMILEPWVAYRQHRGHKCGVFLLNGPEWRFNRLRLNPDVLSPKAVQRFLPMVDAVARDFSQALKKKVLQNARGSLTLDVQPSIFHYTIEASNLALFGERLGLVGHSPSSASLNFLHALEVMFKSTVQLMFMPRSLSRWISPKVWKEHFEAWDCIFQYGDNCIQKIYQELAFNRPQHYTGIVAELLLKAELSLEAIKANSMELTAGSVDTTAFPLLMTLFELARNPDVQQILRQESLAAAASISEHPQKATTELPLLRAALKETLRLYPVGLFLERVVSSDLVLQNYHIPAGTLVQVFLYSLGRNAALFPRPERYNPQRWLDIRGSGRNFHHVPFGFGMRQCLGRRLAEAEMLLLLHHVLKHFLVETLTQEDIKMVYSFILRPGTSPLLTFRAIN
In the case of `CS(=O)(=O)N1CCC(C(O)c2cncnc2Cc2ccccc2)CC1` (racemic), the IC50 is reported as 83 nM. For `CCCCC(O)(c1cncnc1Nc1ccc(F)cc1)C1CCN(S(C)(=O)=O)CC1` (racemic), the IC50 was 48 nM. In the case of `CS(=O)(=O)N1CCC(C(O)c2cncnc2Nc2ccc(C(F)(F)F)cc2)CC1` (racemic), the IC50 is reported as 3 nM. For `CS(=O)(=O)N1CCC(CC(O)c2cncnc2Nc2ccc(F)cc2)CC1` (racemic), the IC50 was 192 nM. `CS(=O)(=O)N1CCC(C(O)c2cncnc2Nc2ccc(F)cc2)C1` (mixture of isomers) gave an IC50 of 144 nM. In the case of `CS(=O)(=O)N1CCC(C(O)c2cncnc2Nc2ccc(C#N)cc2)CC1` (racemic), the IC50 is reported as 2 nM. Work on `CS(=O)(=O)N1CCC(C(O)(c2cncnc2Nc2ccc(F)cc2)C(F)(F)F)CC1` (single isomer, unassigned; isomer 2) yielded an IC50 greater than 100 nM. Compound `CS(=O)(=O)N1CCC(C(O)c2cncnc2Nc2ccccc2)CC1` (racemic) has an IC50 of 15 nM. For `OC(c1ccccc1)c1cncnc1Nc1ccc(F)cc1` (racemic), the IC50 was 30 nM. `CCCC(O)c1cncnc1Nc1ccc(F)cc1` (racemic) gave an IC50 of 75 nM. `CS(=O)(=O)N1CCC(O)(c2cncnc2Nc2ccc(F)cc2)CC1` gave an IC50 of 300 nM.

The compounds below were run against T3, Cytochrome P450 11B1, mitochondrial (Homo sapiens, UniProt P15538) (assay: Inhibition of human CYP11B1 expressed in HEK293A cells). Details: not given.
T3 sequence (P15538 whole entry): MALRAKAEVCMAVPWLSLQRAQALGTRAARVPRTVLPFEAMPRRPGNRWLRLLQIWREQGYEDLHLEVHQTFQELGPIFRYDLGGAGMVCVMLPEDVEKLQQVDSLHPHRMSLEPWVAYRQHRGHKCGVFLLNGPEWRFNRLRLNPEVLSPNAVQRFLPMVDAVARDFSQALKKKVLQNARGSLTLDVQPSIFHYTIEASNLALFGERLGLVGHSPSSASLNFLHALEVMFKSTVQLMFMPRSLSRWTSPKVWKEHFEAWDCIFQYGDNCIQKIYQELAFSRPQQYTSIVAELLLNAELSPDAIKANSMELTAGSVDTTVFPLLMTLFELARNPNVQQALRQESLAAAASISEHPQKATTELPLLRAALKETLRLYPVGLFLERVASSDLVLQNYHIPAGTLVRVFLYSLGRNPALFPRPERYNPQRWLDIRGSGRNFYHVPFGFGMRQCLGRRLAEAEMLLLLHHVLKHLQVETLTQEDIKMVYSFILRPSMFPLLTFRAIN
Type: ADME, cell-based, HEK293
`CCCCC(O)(c1cncnc1Nc1ccc(F)cc1)C1CCN(S(C)(=O)=O)CC1` (racemic) gave an IC50 of 124 nM. Compound `CS(=O)(=O)N1CCC(C(O)c2cncnc2Nc2ccc(C(F)(F)F)cc2)CC1` (racemic) has an IC50 of 16 nM. `CS(=O)(=O)N1CCC(C(O)c2cncnc2Nc2ccc(C#N)cc2)CC1` (racemic) was tested, and the IC50 was 11 nM. `CS(=O)(=O)N1CCC(C(O)(c2cncnc2Nc2ccc(F)cc2)C(F)(F)F)CC1` (single isomer, unassigned; isomer 2) was tested, and the IC50 was greater than 300 nM. `CS(=O)(=O)N1CCC(C(O)c2cncnc2Nc2ccccc2)CC1` (racemic) gave an IC50 of 42 nM. Work on `OC(c1ccccc1)c1cncnc1Nc1ccc(F)cc1` (racemic) yielded an IC50 of 93 nM. For `CCCC(O)c1cncnc1Nc1ccc(F)cc1` (racemic), the IC50 was 181 nM.
